# Test results reported in PMC4850295, “Using a Genetically Encoded Sensor to Identify Inhibitors of Toxoplasma gondii Ca^2+ Signaling” (The Journal of Biological Chemistry, 2016).
# System: T1, GCaMP5-expressing T. gondii
# T1 construct: whole extracellular parasites expressing GCaMP5 Ca2+ sensor
# Set-up: species or system GCaMP5-expressing Toxoplasma gondii, extracellular; GCaMP5 fluorescence (cytosolic Ca2+) after 100 uM zaprinast in compound-pretreated extracellular parasites, background-subtracted, relative to zaprinast alone
# Settings: 100 uM zaprinast stimulation, 10 min pretreatment, mean of two replicates, 0.23 h, 10 µM
# Procedure, shortened: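 Extracellular GCaMP5-expressing parasites in Ringer's solution were pretreated with compounds (single 10 μM dose, two biological replicates) for 10 min, then stimulated with 100 μM zaprinast at 37 °C for 4 min. Fluorescence read at 485/525 nm, basal subtracted, expressed as fold change relative to zaprinast-only parasites.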
row,SMILES,fold change in fluorescence relative to zaprinast alone
1,Nc1ncnc2occ(-c3ccc(NC(=O)Nc4cc(C(F)(F)F)ccc4F)cc3)c12 [GW770249A],0.2788

# Same assay, conditions: 100 uM zaprinast stimulation; 10 min pretreatment; mean of two replicates; 0.23 h
row,SMILES,fold change in fluorescence relative to zaprinast alone
1,Fc1ccc(-c2cc(-c3c[nH]nc3-c3ccccn3)ccn2)cc1 [GW680975X],1.061
2,COC(=O)Nc1nc2ccc(Oc3ccc(NC(=O)Nc4cc(C(F)(F)F)ccc4F)cn3)cc2[nH]1 [GW681170A],1.637
3,Clc1ccc(-c2cc(-c3cn[nH]c3-c3ccccn3)ccn2)cc1 [GW681251X],1.448
4,Cc1[nH]nc2cc(Nc3ccnc(Nc4cccc(CN5CCOCC5)c4)n3)ccc12 [GW682569X],1.452
5,CC(C)c1ccc(-c2cc(-c3c[nH]nc3-c3ccccn3)ccn2)cc1 [GW682841X],1.973
6,O=C(Nc1ccc(Oc2ccc3[nH]c(NC(=O)c4ccco4)nc3c2)cc1)Nc1cc(C(F)(F)F)ccc1F [GW683134A],1.019
7,Nc1nc(-c2cccnc2)c(-c2ccnc3ccccc23)s1 [GW684083X],0.9409
8,CCCCc1nn2ncccc2c1-c1ccnc(NC2CC2)n1 [GW684374X],0.8894
9,Fc1cccc(COc2ccc(Nc3ncnc4sc(-c5cccs5)cc34)cc2Cl)c1 [GW684626B],0.9792
10,CCCCc1nn2ncccc2c1-c1ccnc(Nc2ccc(N3CCN(C)CC3)cc2)n1 [GW684941X],0.4893
11,COC(=O)Nc1nc2ccc(Oc3ccc(NC(=O)Nc4cc(C(F)(F)F)ccc4F)cc3)cc2n1C [GW692089A],1.505
12,N#Cc1ccc(-c2cc(-c3cn[nH]c3-c3ccccn3)ccn2)cc1 [GW693028X],1.123
13,Nc1nc(-c2ccccn2)c(-c2ccc3ncccc3n2)s1 [GW693481X],1.166
14,Nc1nc(-c2nccs2)c(-c2ccnc3ccccc23)s1 [GW693542X],0.8815
15,c1ccc(-c2[nH]ncc2Nc2ccnc3ccccc23)nc1 [GW694077X],1.237
16,COC(=O)Nc1nc2cc(Oc3ccc(NC(=O)Nc4cccc(Br)c4)cc3)ccc2[nH]1 [GW694234A],0.8976
17,COC(=O)Nc1nc2cc(Oc3ccc(NC(=O)Nc4ccccc4)cc3)ccc2[nH]1 [GW694590A],1.127
18,c1ccc(-c2n[nH]cc2-c2ccnc(-c3ccc(OCCN4CCOCC4)cc3)c2)nc1 [GW695874X],1.104
19,CC(C)Oc1ccc2c(-c3ccnc(Nc4ccc(N5CCN(C)CC5)cc4)n3)cnn2n1 [GW696155X],0.6015
20,COC(=O)Nc1nc2ccc(Oc3ccc(NC(=O)Nc4cc(C(F)(F)F)ccc4Cl)cc3)cc2[nH]1 [GW697465A],0.849
21,COC(=O)Nc1nc2ccc(Oc3ccc(NC(=O)Nc4cccc(SC)c4)cc3)cc2[nH]1 [GW697999A],1.427
22,COc1ccc(CNC(=O)c2ccc(-c3cc(-c4nnc(C)o4)ccc3C)cc2)cc1 [GW701032X],1.056
23,COC(=O)Nc1nc2ccc(Oc3ccc(NC(=O)Nc4cc(F)ccc4F)cc3)cc2[nH]1 [GW701424A],1.084

row,SMILES,fold change in fluorescence relative to zaprinast alone
1,COC(=O)Nc1nc2cc(Oc3ccc(NC(=O)Nc4cccc(C(=O)O)c4)cc3)ccc2[nH]1 [GW701427A],1.188
2,Cc1nnc(-c2ccc(C)c(-c3ccc(C(=O)Nc4ccc(NS(C)(=O)=O)cc4)cc3)c2)o1 [GW702865X],1.258
3,CC(=O)Nc1cccc(C#Cc2cncnc2Nc2ccc(OCc3cccc(F)c3)c(Cl)c2)c1 [GW703087X],1.104
4,Fc1cccc(COc2ccc(Nc3ncnc4sc(-c5ccc[nH]5)cc34)cc2Cl)c1 [GW707818B],0.2741
5,c1cc(-c2cnn3nc(N4CCOCC4)ccc23)nc(NC2CC2)n1 [GW708336X],0.6756
6,Cc1nnc(-c2ccc(C)c(-c3ccc(C(=O)NCc4ccc(Cl)cc4)cc3)c2)o1 [GW708893X],1.038
7,O=C(Nc1ccc(Oc2ccc3[nH]c(NC(=O)c4ccccc4)nc3c2)cc1)Nc1cc(C(F)(F)F)ccc1F [GW709042A],1.07
8,FC(F)(F)c1ccc(/C=C/c2cncnc2Nc2ccc3nc(Cc4ccccc4)[nH]c3c2)cc1 [GW709199X],1.132
9,c1ccc(-c2[nH]ncc2-c2ccnc(-c3ccc(CNC4CCOCC4)cc3)c2)nc1 [GW709213X],1.08
10,c1ccc(-c2n[nH]cc2-c2ccnc(-c3ccc(OCCn4ccnc4)cc3)c2)nc1 [GW711782X],1.163
11,Cc1ccc(NC(=O)c2ccoc2)cc1-c1ccc(C(=O)NCC2CC2)cc1 [GW743024X],1.222
12,NC(=O)c1cccc(Nc2nccc(Nc3cccc(F)c3)n2)c1 [GW759710A],1.166
13,CN(C)CC(O)COc1ccc(Nc2nccc(-c3cnn4nc(N5CCOCC5)ccc34)n2)cc1 (centres unmarked) [GW767488X],0.9765
14,CN1CCN(CCNc2nc3ccc(Oc4ccc(NC(=O)Nc5cc(C(F)(F)F)ccc5F)cc4)cc3[nH]2)CC1 [GW768504A],0.9512
15,Cc1ccc(NC(=O)c2ccnc(N3CCCC3)c2)cc1-c1ccc(C(=O)NCC2CC2)cc1 [GW769076X],1.128
16,Cc1c2ccc(N(C)c3ccnc(Nc4cccc(S(N)(=O)=O)c4)n3)cc2nn1C [GW771127A],1.211
17,Cc1ccc(NC(=O)c2ccnc(N3CCN(C)CC3)c2)cc1-c1ccc(C(=O)NCC2CC2)cc1 [GW775604X],1.197
18,Cc1ccc(NC(=O)c2ccnc(N3CCCCC3)c2)cc1-c1ccc(C(=O)NCC2CC2)cc1 [GW775610X],1.448
19,c1ccc(-c2[nH]ncc2-c2ccnc(-c3ccc(CN4CCOCC4)cc3)c2)nc1 [GW776245A],1.036
20,Cc1ccnc2ccc(-c3sc(N)nc3-c3ccccn3)nc12 [GW777257X],1.011
21,N#Cc1cccc(Nc2nccc(-c3cnn4ncccc34)n2)c1 [GW778894X],0.1658
22,CCN(CC)Cc1ccc(Nc2nccc(-c3cnn4ncccc34)n2)cc1 [GW780056X],0.8961
23,C=CC(=O)Nc1cc2c(Nc3ccc(F)c(Cl)c3)ncnc2cc1OCCCN1CCOCC1 [GW781483X],1.29

row,SMILES,fold change in fluorescence relative to zaprinast alone
1,Clc1ccc(CNc2nccc(-c3cnn4ncccc34)n2)cc1 [GW781673X],0.7156
2,NC(=O)c1cccc(Nc2nccc(Nc3cccc4[nH]ncc34)n2)c1 [GW782612X],1.061
3,Cc1ccc(C(=O)NC2CCCCC2)cc1-c1ccc(C(=O)NCC2CC2)cc1 [GW782907X],1.25
4,Cc1ccc(C(=O)NC2CCC2)cc1-c1ccc(C(=O)NCC2CC2)cc1 [GW782912X],1.104
5,COc1ccc(C)c(Nc2ccnc(Nc3ccc(-c4cnc[nH]4)cc3)n2)c1 [GW784041A],1.009
6,COc1cccc(-n2ncc3c(N/N=C/c4ccc(C(=O)NCCN(C)C)cc4)ncnc32)c1 [GW784307A],0.4737
7,COc1cccc(-n2ncc3c(N/N=C/c4ccncc4)ncnc32)c1 [GW784752X],1.109
8,Nc1nc(-c2ccc(F)cc2)c(-c2ccc3ncccc3n2)s1 [GW785804X],1.356
9,Cc1ccc(C(=O)NC(C)C)cc1-c1ccc(C(=O)NCC2CC2)cc1 [GW785974X],1.119
10,Cc1cccc(-c2n[nH]cc2-c2ccc3ncccc3n2)n1 [GW786460X],1.226
11,Cc1c2ccc(N(C)c3ccnc(Nc4cccc(S(N)(=O)=O)c4)n3)cc2nn1Cc1ccccc1 [GW787226A],1.348
12,CCCNc1cccc(-n2ncc3c(N/N=C/c4ccncc4)ncnc32)c1 [GW794607X],0.688
13,Nc1ncnc2occ(-c3ccc(NC(=O)Nc4cc(C(F)(F)F)cc(C(F)(F)F)c4)cc3)c12 [GW795486X],0.08819
14,Cc1ccc(NC(=O)CC2CC2)cc1-c1ccc(C(=O)NCC2CC2)cc1 [GW796920X],1.231
15,Nc1nccc(C#Cc2cncnc2Nc2ccc(OCc3cccc(F)c3)c(Cl)c2)n1 [GW799251X],1.079
16,Cc1ccc(C(=O)NC2CCCC2)cc1-c1ccc(C(=O)NCC2CC2)cc1 [GW800172X],1.109
17,COc1cc(Nc2nccc(-c3cnn4ncccc34)n2)cc(OC)c1 [GW801372X],0.4013
18,COc1cccc(COc2cc(-n3cnc4ccccc43)sc2C(N)=O)c1 [GW804482X],1.105
19,CC(C)c1ccc(Nc2nccc(-c3cnn4ncccc34)n2)cc1 [GW805758X],0.2516
20,c1cnn2ncc(-c3ccnc(Nc4ccc5c(c4)OCCO5)n3)c2c1 [GW806290X],-0.04929
21,CN(c1ccc(NC(=O)Nc2ccc(OC(F)(F)F)cc2)cc1)c1ccnc(Nc2cccc(S(N)(=O)=O)c2)n1 [GW806742X],0.4394
